Laboratory results from patent US20260184708A1, “PYRIDAZINONES AND METHODS OF USE THEREOF” (GFB (ABC), LLC, priority 2017, published 2026).
Where two headings read alike, the source gives them in different places.

Biological target: T1, TRPC5 (Homo sapiens, UniProt Q9UL62)
T1 construct: expressed in transfected cells; host or cells: HEK 293
T1 sequence (Q9UL62 1-973): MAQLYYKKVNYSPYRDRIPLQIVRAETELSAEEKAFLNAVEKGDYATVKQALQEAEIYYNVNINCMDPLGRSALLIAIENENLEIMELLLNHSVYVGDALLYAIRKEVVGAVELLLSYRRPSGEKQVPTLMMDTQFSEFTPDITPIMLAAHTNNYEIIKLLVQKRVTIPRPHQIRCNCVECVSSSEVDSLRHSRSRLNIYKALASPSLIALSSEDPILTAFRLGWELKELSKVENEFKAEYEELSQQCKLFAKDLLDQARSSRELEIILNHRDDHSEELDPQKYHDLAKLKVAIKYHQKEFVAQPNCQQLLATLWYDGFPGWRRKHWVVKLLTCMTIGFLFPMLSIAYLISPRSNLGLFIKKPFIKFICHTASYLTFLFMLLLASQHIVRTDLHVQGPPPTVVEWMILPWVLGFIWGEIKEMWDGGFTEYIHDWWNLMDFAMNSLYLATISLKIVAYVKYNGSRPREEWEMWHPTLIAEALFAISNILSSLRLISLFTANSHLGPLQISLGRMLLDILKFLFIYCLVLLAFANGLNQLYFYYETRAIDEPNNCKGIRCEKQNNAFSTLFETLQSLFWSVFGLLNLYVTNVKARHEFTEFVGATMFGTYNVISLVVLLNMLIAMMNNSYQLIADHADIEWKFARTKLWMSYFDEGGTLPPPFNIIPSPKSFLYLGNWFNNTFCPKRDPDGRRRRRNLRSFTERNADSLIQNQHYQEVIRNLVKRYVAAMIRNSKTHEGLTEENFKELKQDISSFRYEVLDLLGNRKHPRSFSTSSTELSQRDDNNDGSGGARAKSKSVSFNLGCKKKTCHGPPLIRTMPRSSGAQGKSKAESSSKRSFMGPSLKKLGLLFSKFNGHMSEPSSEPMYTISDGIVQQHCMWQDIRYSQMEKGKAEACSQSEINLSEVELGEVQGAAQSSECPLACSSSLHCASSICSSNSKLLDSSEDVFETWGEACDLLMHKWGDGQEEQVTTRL
Assay: TRPC5 automated patch clamp assay (Qpatch), current block after rosiglitazone stimulation
Type: cell-based
Conditions: HEK293 cells overexpressing TRPC5, rosiglitazone stimulation
Procedure: HEK 293 cells expressing human TRPC5 were harvested, re-suspended in serum free medium, and added to the automated platform and used within 2-3 hours. Internal and external physiological solutions were freshly prepared prior to the assay. The external solution contained: 145 mM NaCl, 4 mM KCl, 2 mM CaCl2), 1 mM MgCl2, 10 mM HEPES, 10 mM glucose, pH 7.4 with NaOH and 300 mOsm/L. The internal solution contained 120 mM L-aspartic acid, 120 mM CsOH·H2O, 20 mM CsCl, 2 mM MgCl2, 8.8 mM CaCl2), 10 mM EGTA, 10 mM HEPES, 10 mM Glucose, 0.1 mM GTP and 2 mM Na2ATP; pH 7.2 with CsOH and 290 mOsm/L. The free internal Ca2+ concentration was buffered to 1 μM.
The automated electrophysiological platform QPatch 16 from Sophion (Denmark) was used to carry out the compounds profiling. The series resistance and quality of seals were continuously monitored during the experiments. Data was analyzed using Sophion QPatch assay software 5.6 (Odense). IC50 values were calculated using a least squares regression algorithm (Hill equation).
To monitor the ion currents, a voltage ramp from −100 mV to +100 mV, over 300 ms, was applied every 10 seconds, from a holding potential of −60 mV.
After recording for a minimum of 60 seconds control period, Rosiglitazone (30 uM), was applied to activate the channel.

[1] = 80 mV, read-out: TRPC5_QP XC50_80
[2] = 100 mV, read-out: TRPC5_QP XC50_100
[3] = Table 3, 80 mV, read-out: TRPC5_QP_ XC50_80
[4] = Table 3, 100 mV, read-out: TRPC5_QP_ XC50_100

Compound	IC50 [1]	IC50 [2]	IC50 [3]	IC50 [4]
Cc1ccccc1CN1CCN(c2cn[nH]c(=O)c2)CC1	10 to 500 µM	10 to 500 µM	–	–
O=c1[nH]ncc(N2CCN(Cc3ccccc3)CC2)c1Br	5 to 10 µM	5 to 10 µM	–	–
O=c1[nH]ncc(N2CCN(S(=O)(=O)c3ccccc3)CC2)c1Br	10 to 500 µM	10 to 500 µM	–	–
CN1CCN(c2cn[nH]c(=O)c2Br)CC1	10 to 500 µM	10 to 500 µM	–	–
O=c1[nH]ncc(N2CCN(Cc3ccccc3)C3(CC3)C2)c1Br	10 to 500 µM	10 to 500 µM	–	–
Cc1ccccc1CN1CCN(c2cn[nH]c(=O)c2Br)CC12CC2	10 to 500 µM	10 to 500 µM	–	–
Cc1ccccc1CN1CC2CC(C1)N2c1cn[nH]c(=O)c1Br	10 to 500 µM	10 to 500 µM	–	–
O=c1[nH]ncc(N2C3CCC2CN(Cc2ccccc2)C3)c1Br	10 to 500 µM	10 to 500 µM	–	–
Cc1ccccc1CN1CC2CC1CN2c1cn[nH]c(=O)c1Br (stereo not drawn)	–	–	10 to 500 µM	10 to 500 µM
Cc1ccccc1CN1CC2CCC(C1)N2c1cn[nH]c(=O)c1Br	–	–	10 to 500 µM	10 to 500 µM
O=c1[nH]ncc(N2CCCN(Cc3ccccc3)CC2)c1Br	–	–	10 to 500 µM	10 to 500 µM
Cc1ccccc1CN1C2CC1CN(c1cn[nH]c(=O)c1Br)C2	–	–	10 to 500 µM	10 to 500 µM
O=c1[nH]ncc(N2CC3(CN(Cc4ccccc4)C3)C2)c1Br	–	–	10 to 500 µM	10 to 500 µM
Cc1ccccc1CN1CC2(C1)CN(c1cn[nH]c(=O)c1Br)C2	–	–	10 to 500 µM	10 to 500 µM

Other lines, results leading:

IC50 [1]	IC50 [2]	IC50 [3]	IC50 [4]	Compound
1 to 5 µM	1 to 5 µM	–	–	Cc1ccccc1CN1CCN(c2cn[nH]c(=O)c2Br)CC1
1 to 5 µM	1 to 5 µM	–	–	Cc1ccccc1CN1CCN(c2c(Br)cn[nH]c2=O)CC1
10 to 500 µM	10 to 500 µM	–	–	O=c1[nH]ncc(N2CCC(Cc3ccccc3)CC2)c1Br
10 to 500 µM	10 to 500 µM	–	–	O=C(c1ccccc1)N1CCN(c2cn[nH]c(=O)c2Br)CC1
10 to 500 µM	10 to 500 µM	–	–	Cc1ccccc1S(=O)(=O)N1CCN(c2cn[nH]c(=O)c2Br)CC1
5 to 10 µM	5 to 10 µM	–	–	Cc1ccccc1C(=O)N1CCN(c2cn[nH]c(=O)c2Br)CC1
10 to 500 µM	10 to 500 µM	–	–	NC(=O)CN1CCN(c2cn[nH]c(=O)c2Br)CC1
1 to 5 µM	5 to 10 µM	–	–	CC(c1ccccc1)N1CCN(c2cn[nH]c(=O)c2Br)CC1 (stereo not drawn)
1 to 5 µM	1 to 5 µM	–	–	Cc1cccc(C)c1CN1CCN(c2cn[nH]c(=O)c2Br)CC1
10 to 500 µM	10 to 500 µM	–	–	CS(=O)(=O)N1CCN(c2cn[nH]c(=O)c2Br)CC1
10 to 500 µM	10 to 500 µM	–	–	CN(C)C(=O)CN1CCN(c2cn[nH]c(=O)c2Br)CC1
1 to 5 µM	1 to 5 µM	–	–	O=c1[nH]ncc(N2CCN(CC3CCCCC3)CC2)c1Br
5 to 10 µM	5 to 10 µM	–	–	Cc1ccccc1CN1CCCN(c2cn[nH]c(=O)c2Br)CC1
–	–	10 to 500 µM	10 to 500 µM	O=c1[nH]ncc(N2CCCNCC2)c1Br
–	–	10 to 500 µM	10 to 500 µM	CC(C)(C)CN1CCN(c2cn[nH]c(=O)c2Br)CC1
–	–	1 to 5 µM	1 to 5 µM	Cc1cc(F)ccc1CN1CCN(c2cn[nH]c(=O)c2Br)CC1
–	–	5 to 10 µM	5 to 10 µM	Cn1nccc1CN1CCN(c2cn[nH]c(=O)c2Br)CC1
–	–	10 to 500 µM	10 to 500 µM	Cn1ccnc1CN1CCN(c2cn[nH]c(=O)c2Br)CC1
–	–	1 to 5 µM	1 to 5 µM	Cc1ccccc1C(C)N1CCN(c2cn[nH]c(=O)c2Br)CC1 (stereo not drawn)
